Test results reported in PubChem BioAssay AID248 (DTP/NCI, 2004).
Several values for one entry are separate records, joined by “and”; a condition that tells them apart may be missing. Equal entries are not always repeated. Toxic doses and inconclusive results are not listed. Cut-off read from the data, not from the text of the source: active = T/C of 150% or more; inactive = T/C below 125%.

Tested on: L1210 leukemia ip in BDF1 mice, survival T/C
Assay: NCI In Vivo Anticancer Drug Screen. Data for tumor model L1210 Leukemia (intraperitoneal) in B6D2F1 (BDF1) mice
Details: endpoint: mean survival time, higher = longer survival
How it was run: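 Transplantable tumor model; survival measured in treated vs vehicle control mice. Value = treated/control.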

[1] = dose: 100.0 mg/kg/injection, schedule: Q01DX001 (ip), vehicle: saline
[2] = dose: 200.0 mg/kg/injection, schedule: Q01DX001 (ip), vehicle: saline
[3] = dose: 400.0 mg/kg/injection, schedule: Q01DX001 (ip), vehicle: saline

Measured: T/C

Cc1c2ccccc2cc2cccc[n+]12
inactive: dose: 4.0 mg/kg/injection, schedule: Q01DX015 (ip), vehicle: saline 97 % of control | dose: 5.0 mg/kg/injection, schedule: Q01DX001 (ip), vehicle: saline 98 % of control | dose: 8.0 mg/kg/injection, schedule: Q01DX015 (ip), vehicle: saline 97 % of control | dose: 10.0 mg/kg/injection, schedule: Q01DX001 (ip), vehicle: saline 92 % of control | dose: 16.0 mg/kg/injection, schedule: Q01DX015 (ip), vehicle: saline 110 % of control | dose: 20.0 mg/kg/injection, schedule: Q01DX001 (ip), vehicle: saline 107 % of control | dose: 20.0 mg/kg/injection, schedule: Q04DX003 (ip), vehicle: saline 111 % of control | dose: 26.0 mg/kg/injection, schedule: Q04DX003 (ip), vehicle: saline 111 % of control and 118 % of control | dose: 32.0 mg/kg/injection, schedule: Q01DX015 (ip), vehicle: saline 95 % of control | dose: 40.0 mg/kg/injection, schedule: Q01DX001 (ip), vehicle: saline 112 % of control | dose: 40.0 mg/kg/injection, schedule: Q04DX003 (ip), vehicle: saline 116 % of control and 117 % of control | dose: 60.0 mg/kg/injection, schedule: Q04DX003 (ip), vehicle: saline 122 % of control

CCN1CCCC(Nc2cc(C)nc(Nc3nc4cc(Cl)c(Cl)cc4[nH]3)n2)C1 (centres undefined)
inactive: dose: 25.0 mg/kg/injection, schedule: Q01DX009 (ip), vehicle: saline with Tween-80 94 % of control | [1] 98 % of control

NCC1OC(n2cnc3c(=O)[nH]c(N)nc32)C(O)C1O (centres undefined)
inactive: [1] 101 % of control | [2] 95 % of control | [3] 91 % of control

CN(C)[Se](=O)Cl (centres undefined)
inactive: dose: 12.5 mg/kg/injection, schedule: Q04DX002 (ip), vehicle: saline with Tween-80 100 % of control | dose: 25.0 mg/kg/injection, schedule: Q04DX002 (ip), vehicle: saline with Tween-80 110 % of control

O=C(Oc1ccccc1)c1ccc(Cl)cc1
inactive: dose: 100.0 mg/kg/injection, schedule: Q01DX009 (ip), vehicle: Klucel (hydroxypropylcellulose) (HPC) 98 % of control | dose: 100.0 mg/kg/injection, schedule: Q04DX003 (ip), vehicle: Klucel (hydroxypropylcellulose) (HPC) 102 % of control | dose: 200.0 mg/kg/injection, schedule: Q01DX009 (ip), vehicle: Klucel (hydroxypropylcellulose) (HPC) 95 % of control | dose: 200.0 mg/kg/injection, schedule: Q04DX003 (ip), vehicle: Klucel (hydroxypropylcellulose) (HPC) 101 % of control | dose: 400.0 mg/kg/injection, schedule: Q01DX009 (ip), vehicle: Klucel (hydroxypropylcellulose) (HPC) 98 % of control | dose: 400.0 mg/kg/injection, schedule: Q04DX003 (ip), vehicle: Klucel (hydroxypropylcellulose) (HPC) 98 % of control

COc1cc(OC)c(/C=C/c2c3ccccc3cc[n+]2C)c(OC)c1
inactive: dose: 0.78 mg/kg/injection, schedule: Q01DX009 (ip), vehicle: saline with Tween-80 100 % of control | dose: 1.56 mg/kg/injection, schedule: Q01DX009 (ip), vehicle: saline with Tween-80 97 % of control

BrCCCCBr
inactive: [1] 103 % of control | [2] 100 % of control | [3] 103 % of control

O=C(NCc1cnccn1)Nc1ccccc1
inactive: dose: 25.0 mg/kg/injection, schedule: Q01DX009 (ip), vehicle: saline 101 % of control | dose: 50.0 mg/kg/injection, schedule: Q01DX009 (ip), vehicle: saline 87 % of control | dose: 100.0 mg/kg/injection, schedule: Q01DX009 (ip), vehicle: saline 108 % of control | dose: 200.0 mg/kg/injection, schedule: Q01DX009 (ip), vehicle: saline 102 % of control | dose: 400.0 mg/kg/injection, schedule: Q01DX009 (ip), vehicle: saline 103 % of control

CCOC(=O)OC(=O)CNC(=O)CN1C(=O)c2ccccc2C1=O
inactive: [1] 100 % of control | [2] 94 % of control | [3] 91 % of control

CC12CCC(=O)C=C1CCC1C2CCC2(C)C1CCC2[N+](C)(C)C (centres undefined)
inactive: dose: 75.0 mg/kg/injection, schedule: Q01DX001 (ip), vehicle: other 108 % of control
